Measured values from the supplement of paper PMC9663587.

Assays:
[1] = compound: CCN1CCN(Cc2ccc(Nc3ncc(F)c(-c4cc(F)c5nc(C)n(C(C)C)c5c4)n3)nc2)CC1
Taselisib/GDC0032 = compound: Cc1nc(-c2cn3c(n2)-c2ccc(-c4cnn(C(C)(C)C(N)=O)c4)cc2OCC3)n(C(C)C)n1 [Taselisib/GDC0032]
Pictilisib/GDC0941 = compound: CS(=O)(=O)N1CCN(Cc2cc3nc(-c4cccc5[nH]ncc45)nc(N4CCOCC4)c3s2)CC1 [Pictilisib/GDC0941]
Tivantinib/ARQ197 = compound: O=C1NC(=O)[C@@H](c2cn3c4c(cccc24)CCC3)[C@@H]1c1c[nH]c2ccccc12 [Tivantinib/ARQ197]
[2] = compound: COc1ccc2c(c1)[C@]1(C[C@H]1c1ccc3c(/C=C/c4ccc(CN5C[C@@H](C)O[C@@H](C)C5)cc4)n[nH]c3c1)C(=O)N2
Volasertib/BI6727 = compound: CC[C@@H]1C(=O)N(C)c2cnc(Nc3ccc(C(=O)N[C@H]4CC[C@H](N5CCN(CC6CC6)CC5)CC4)cc3OC)nc2N1C(C)C [Volasertib/BI6727]
Neratinib/HKI272 [3] = compound: T1, CCOc1cc2ncc(C#N)c(Nc3ccc(OCc4ccccn4)c(Cl)c3)c2cc1NC(=O)/C=C/CN(C)C [Neratinib/HKI272]
Ceritinib/LDK378 = compound: Cc1cc(Nc2ncc(Cl)c(Nc3ccccc3S(=O)(=O)C(C)C)n2)c(OC(C)C)cc1C1CCNCC1 [Ceritinib/LDK378]
BSJ-03-123 [4] = compound: T2, CC(=O)c1c(C)c2cnc(Nc3ccc(N4CCN(CCOCCOCCOCCNC(=O)COc5cccc6c5C(=O)N(C5CCC(=O)NC5=O)C6=O)CC4)cn3)nc2n(C2CCCC2)c1=O [BSJ-03-123]
LEE011/Ribociclib [5] = compound: T3, CN(C)C(=O)c1cc2cnc(Nc3ccc(N4CCNCC4)cn3)nc2n1C1CCCC1 [LEE011/Ribociclib]
INK128/MLN0128 = compound: CC(C)n1nc(-c2ccc3oc(N)nc3c2)c2c(N)ncnc21 [INK128/MLN0128]
Paclitaxel = compound: CC(=O)O[C@H]1C(=O)[C@@]2(C)[C@H]([C@H](OC(=O)c3ccccc3)[C@]3(O)C[C@H](OC(=O)[C@H](O)[C@@H](NC(=O)c4ccccc4)c4ccccc4)C(C)=C1C3(C)C)[C@]1(OC(C)=O)CO[C@@H]1C[C@@H]2O [Paclitaxel]
ABT-737 = compound: CN(C)CC[C@H](CSc1ccccc1)Nc1ccc(S(=O)(=O)NC(=O)c2ccc(N3CCN(Cc4ccccc4-c4ccc(Cl)cc4)CC3)cc2)cc1[N+](=O)[O-] [ABT-737]
THZ531 = compound: CN(C)C/C=C/C(=O)Nc1ccc(C(=O)N2CCC[C@@H](Nc3ncc(Cl)c(-c4c[nH]c5ccccc45)n3)C2)cc1 [THZ531]
[6] = compound: CCN1CCN(Cc2ccc(Nc3ncc(F)c(-c4cc(F)c5nc(C)n(C(C)C)c5c4)n3)nc2)CC1; experiment: GR value, 72 h; higher = faster growth (1 = untreated, <0 = killing);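 note: breast cancer and non-malignant breast epithelial lines, nine half-log doses, viable cells counted by Hoechst and LIVE/DEAD dye imaging versus time-zero plates and DMSO controls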
[7] = compound: CCc1cnn2c(NCc3ccc[n+]([O-])c3)cc(N3CCCC[C@H]3CCO)nc12; experiment: as above
Neratinib/HKI272 [8] = compound: T1, Neratinib/HKI272; experiment: as above
BSJ-03-123 [9] = compound: T2, BSJ-03-123; experiment: as above
LEE011/Ribociclib [10] = compound: T3, LEE011/Ribociclib; experiment: as above
YKL-5-124 = compound: C=CC(=O)Nc1ccc(C(=O)Nc2[nH]nc3c2CN(C(=O)N[C@H](CN(C)C)c2ccccc2)C3(C)C)cc1 [YKL-5-124]; experiment: as above
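Throughout, for GR50, 72 h: breast cancer and non-malignant breast epithelial cell lines, Deep Dye Drop or Dye Drop imaging, nine half-log doses, GR normalized to time-zero plates and DMSO-only controls.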

AU565
GR50, 72 h [1]: 0.0308 µM
GR50, 72 h (Taselisib/GDC0032): 0.00379 µM
GR50, 72 h (Pictilisib/GDC0941): 0.067 µM
GR50, 72 h (Tivantinib/ARQ197): 0.215 µM
GR50, 72 h [2]: 0.00339 µM
GR50, 72 h (Volasertib/BI6727): 0.00381 µM
GR50, 72 h (Neratinib/HKI272 [3]): 0.00121 µM
GR50, 72 h (Ceritinib/LDK378): 3.15 µM
GR50, 72 h (BSJ-03-123 [4]): 1.21 µM
GR50, 72 h (LEE011/Ribociclib [5]): 0.663 µM
GR50, 72 h (INK128/MLN0128): 0.00529 µM
GR50, 72 h (Paclitaxel): 0.00163 µM
GR50, 72 h (ABT-737): 7.24 µM
GR50, 72 h (THZ531): 0.055 µM
GR value ([6]; 0.001 µM): 0.876 GR
GR value ([6]; 0.003162 µM): 0.791 GR
GR value ([6]; 0.01 µM): 0.605 GR
GR value ([6]; 0.03162 µM): 0.382 GR
GR value ([6]; 0.1 µM): 0.268 GR
GR value ([6]; 0.3162 µM): 0.223 GR
GR value ([6]; 1 µM): 0.114 GR
GR value ([6]; 3.162 µM): 0.0465 GR
GR value ([6]; 10 µM): -0.328 GR
GR value ([7]; 0.0001 µM): 0.954 GR
GR value ([7]; 0.0003162 µM): 0.978 GR
GR value ([7]; 0.001 µM): 0.974 GR
GR value ([7]; 0.003162 µM): 0.928 GR
GR value ([7]; 0.01 µM): 0.19 GR
GR value ([7]; 0.03162 µM): -0.568 GR
GR value ([7]; 0.1 µM): -0.734 GR
GR value ([7]; 0.3162 µM): -0.746 GR
GR value ([7]; 1 µM): -0.767 GR
GR value (Neratinib/HKI272 [8]; 0.0003162 µM): 0.834 GR
GR value (Neratinib/HKI272 [8]; 0.001 µM): 0.534 GR
GR value (Neratinib/HKI272 [8]; 0.003162 µM): 0.172 GR
GR value (Neratinib/HKI272 [8]; 0.01 µM): -0.145 GR
GR value (Neratinib/HKI272 [8]; 0.03162 µM): -0.318 GR
GR value (Neratinib/HKI272 [8]; 0.1 µM): -0.388 GR
GR value (Neratinib/HKI272 [8]; 0.3162 µM): -0.506 GR
GR value (Neratinib/HKI272 [8]; 1 µM): -0.585 GR
GR value (Neratinib/HKI272 [8]; 3.162 µM): -0.614 GR
GR value (BSJ-03-123 [9]; 0.001 µM): 0.962 GR
GR value (BSJ-03-123 [9]; 0.003162 µM): 0.875 GR
GR value (BSJ-03-123 [9]; 0.01 µM): 0.791 GR
GR value (BSJ-03-123 [9]; 0.03162 µM): 0.759 GR
GR value (BSJ-03-123 [9]; 0.1 µM): 0.833 GR
GR value (BSJ-03-123 [9]; 0.3162 µM): 0.775 GR
GR value (BSJ-03-123 [9]; 1 µM): 0.41 GR
GR value (BSJ-03-123 [9]; 3.162 µM): 0.52 GR
GR value (BSJ-03-123 [9]; 10 µM): -0.386 GR
GR value (LEE011/Ribociclib [10]; 0.001 µM): 0.82 GR
GR value (LEE011/Ribociclib [10]; 0.003162 µM): 0.739 GR
GR value (LEE011/Ribociclib [10]; 0.01 µM): 0.645 GR
GR value (LEE011/Ribociclib [10]; 0.03162 µM): 0.742 GR
GR value (LEE011/Ribociclib [10]; 0.1 µM): 0.569 GR
GR value (LEE011/Ribociclib [10]; 0.3162 µM): 0.546 GR
GR value (LEE011/Ribociclib [10]; 1 µM): 0.487 GR
GR value (LEE011/Ribociclib [10]; 3.162 µM): 0.425 GR
GR value (LEE011/Ribociclib [10]; 10 µM): 0.227 GR
GR value (YKL-5-124; 0.001 µM): 0.305 GR
GR value (YKL-5-124; 0.003162 µM): 0.28 GR
GR value (YKL-5-124; 0.01 µM): 0.128 GR
GR value (YKL-5-124; 0.03162 µM): 0.0651 GR
GR value (YKL-5-124; 0.1 µM): -0.0212 GR
GR value (YKL-5-124; 0.3162 µM): -0.0588 GR
GR value (YKL-5-124; 1 µM): -0.111 GR
GR value (YKL-5-124; 3.162 µM): -0.172 GR
GR value (YKL-5-124; 10 µM): -0.563 GR
